In patent US8044079B2, “Substituted oxindole derivatives, medicaments containing said derivatives and use thereof” (Abbott GmbH & Co. KG, priority 2005, dated 2011):

target: T1, human vasopressin V1b receptor (Homo sapiens, UniProt P47901); test: Vasopressin V1b receptor binding test; conditions: membranes of CHO-K1 cells with human V1b receptor, displacement of 1.5 nM 3H-AVP; for compounds with more than one stereogenic center the diastereomer with greater affinity
T1 construct: expressed in transfected cells; host or cells: CHO-K1 (cell line hV1b_3H2_CHO), membrane preparation
T1 sequence (P47901 1-424): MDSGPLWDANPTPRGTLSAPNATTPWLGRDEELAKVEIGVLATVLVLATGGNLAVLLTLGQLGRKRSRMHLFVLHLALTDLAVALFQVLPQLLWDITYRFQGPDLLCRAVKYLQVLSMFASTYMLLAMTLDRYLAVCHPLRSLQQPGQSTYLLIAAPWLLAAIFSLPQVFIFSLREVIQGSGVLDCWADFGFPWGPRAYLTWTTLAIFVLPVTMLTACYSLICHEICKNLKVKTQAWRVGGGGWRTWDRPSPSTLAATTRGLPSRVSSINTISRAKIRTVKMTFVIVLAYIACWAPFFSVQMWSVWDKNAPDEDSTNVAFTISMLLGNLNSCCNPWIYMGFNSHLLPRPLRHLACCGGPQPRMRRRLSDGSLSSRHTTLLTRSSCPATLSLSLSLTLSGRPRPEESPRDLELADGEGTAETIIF
Outline: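 Affinity constants (Ki) came from nonlinear regression of triplicate scintillation counts after filtration separated bound from free radioligand. Compounds competed at human V1b membranes for 60 min, room temperature, in pH 7.4 tris/MgCl2/BSA buffer with 2% DMSO; 1 μM AVP defined nonspecific binding.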

Row | Compound | Ki [nM]
1 | COc1ccc(S(=O)(=O)N2C(=O)C(c3cc(CN4CCN(CCO)CC4)ccc3OC)(N3CCC[C@H]3c3ncc(C)o3)c3cc(Cl)ccc32)cc1 (stereo partly drawn) [Example 233, 5-Chloro-3-{5-[4-(2-hydroxyethyl)piperazin-1-ylmethyl]-2-methoxyphenyl}-1-(4-methoxybenzenesulfonyl)-3-[(S)-2-(5-methyloxazol-2-yl)-pyrrolidin-1-yl]-1,3-dihydroindol-2-one] | 10 to 100
2 | COc1ccc(S(=O)(=O)N2C(=O)C(c3cc(CN(C)C)ccc3OC)(N3CCC[C@H]3c3ncc(C)o3)c3cc(Cl)ccc32)cc1 (stereo partly drawn) [Example 234, 5-Chloro-3-(5-dimethylaminomethyl-2-methoxyphenyl)-1-(4-methoxybenzenesulfonyl)-3-[(S)-2-(5-methyloxazol-2-yl)-pyrrolidin-1-yl]-1,3-dihydroindol-2-one] | 10 to 100
3 | COc1ccc(S(=O)(=O)N2C(=O)C(c3cc(CN4CCN(C)CC4)ccc3OC)(N3CCC[C@H]3c3ncc(C)o3)c3cc(Cl)ccc32)cc1 (stereo partly drawn) [Example 235, 5-Chloro-1-(4-methoxybenzenesulfonyl)-3-[2-methoxy-5-(4-methylpiperazin-1-ylmethyl)phenyl]-3-[(S)-2-(5-methyloxazol-2-yl)-pyrrolidin-1-yl]-1,3-dihydroindol-2-one] | 10 to 100
